{"source": "paper PMC12514245", "about": "“Impaired migration and lung invasion of human melanoma by a novel small molecule targeting the transmembrane domain of death receptor p75^NTR” (EMBO Molecular Medicine, 2025)", "key": {"[1]": {"system": "A875 shp75 cells", "assay": "Wound healing cell motility assay, A875 shp75", "format": "cell-based, human", "experimental": "For wound healing assay, cells were grown until confluency and subjected to a wound across the cell mono-layer. Cells were then incubated with serum-free media either with DMSO or a small molecule (with or without 5 µM Q_VD_poH) and imaged at specific time-points. Cell migration is reflected as fold change in wound area over time."}, "[2]": {"system": "A875 NT cells", "assay": "Boyden chamber chemotaxis/invasion assay, A875 NT", "format": "cell-based, human", "conditions": "for Fold change - invading cells, Mean / Fold change - invading cells, individual replicates: 1μM; for Fold change (invading cells), Mean: N=3", "experimental": "For Boyden chamber assay, Corning® BioCoat™ Matrigel® Invasion Chambers 8.0 µm PET Membrane were used (cat. no. 354480). A875 NT or WM115 cells were serum-starved for 16 h and then seeded at 60,000 cells per well in serum-free media under different conditions, including DMSO (vehicle) or small molecules Div17E5 or Np75-4A22 at different concentrations to the top chamber of the Matrigel-coated trans-well chamber. The pan-caspase inhibitor Q_VD_poH (at 5 µM) was also introduced in the top chamber in some experiments. Two different chemoattractants, NGF (at 50 ng/ml or 100 ng/ml as indicated) or 10% FBS were added to the bottom chamber. Assays were carried out for 8 h after which filters were fixed in 4% PFA and stained with DAPI. Cells that had remained on the top of the filter were gently scrapped away with a cotton tip. The filter lower side was imaged on an inverted fluorescence microscope and counted using ImageJ software (NIH)."}, "[3]": {"conditions": "5μM Q_VD_pOH + 10uM Div17E5, With NGF"}, "[4]": {"conditions": "5μM Q_VD_pOH + 10uM Div17E5, without NGF"}}, "note": "Values joined by “and” are separate entries in the source; they are usually repeats but may differ in a detail not shown here. Identical values can stand only once.", "data": [{"molecule": "Oc1ccc(-c2cncc(Nc3ccc(Br)c(Cl)c3)n2)cc1", "note": "[Div17E5]", "values": [{"measurement": "Wound area (Fold)", "setting": "[1]; A875 shp75, 1uM, 15 h, Mean", "value": 0.847, "unit": "Fold"}, {"measurement": "Wound area (Fold)", "setting": "[1]; A875 shp75, 1uM, 15 h, n1", "value": 0.839, "unit": "Fold"}, {"measurement": "Wound area (Fold)", "setting": "[1]; A875 shp75, 1uM, 15 h, n2", "value": 0.841, "unit": "Fold"}, {"measurement": "Wound area (Fold)", "setting": "[1]; A875 shp75, 1uM, 15 h, n3", "value": 0.861, "unit": "Fold"}, {"measurement": "Wound area (Fold)", "setting": "[1]; A875 shp75, 1uM, 18 h, Mean", "value": 0.821, "unit": "Fold"}, {"measurement": "Wound area (Fold)", "setting": "[1]; A875 shp75, 1uM, 18 h, n1", "value": 0.821, "unit": "Fold"}, {"measurement": "Wound area (Fold)", "setting": "[1]; A875 shp75, 1uM, 18 h, n2", "value": 0.823, "unit": "Fold"}, {"measurement": "Wound area (Fold)", "setting": "[1]; A875 shp75, 1uM, 18 h, n3", "value": 0.820, "unit": "Fold"}, {"measurement": "Wound area (Fold)", "setting": "[1]; A875 shp75, 1uM, 21 h, Mean", "value": 0.792, "unit": "Fold"}, {"measurement": "Wound area (Fold)", "setting": "[1]; A875 shp75, 1uM, 21 h, n1", "value": 0.780, "unit": "Fold"}, {"measurement": "Wound area (Fold)", "setting": "[1]; A875 shp75, 1uM, 21 h, n2", "value": 0.797, "unit": "Fold"}, {"measurement": "Wound area (Fold)", "setting": "[1]; A875 shp75, 1uM, 21 h, n3", "value": 0.800, "unit": "Fold"}, {"measurement": "Wound area (Fold)", "setting": "[1]; A875 shp75, 1uM, 24 h, Mean", "value": 0.773, "unit": "Fold"}, {"measurement": "Wound area (Fold)", "setting": "[1]; A875 shp75, 1uM, 24 h, n1", "value": 0.775, "unit": "Fold"}, {"measurement": "Wound area (Fold)", "setting": "[1]; A875 shp75, 1uM, 24 h, n2", "value": 0.773, "unit": "Fold"}, {"measurement": "Wound area (Fold)", "setting": "[1]; A875 shp75, 1uM, 24 h, n3", "value": 0.771, "unit": "Fold"}, {"measurement": "Wound area (Fold)", "setting": "[1]; A875 shp75, 2uM, 0 h, Mean", "value": 1.000, "unit": "Fold"}, {"measurement": "Wound area (Fold)", "setting": "[1]; A875 shp75, 2uM, 0 h, n1", "value": 1.055, "unit": "Fold"}, {"measurement": "Wound area (Fold)", "setting": "[1]; A875 shp75, 2uM, 0 h, n2", "value": 0.891, "unit": "Fold"}, {"measurement": "Wound area (Fold)", "setting": "[1]; A875 shp75, 2uM, 0 h, n3", "value": 1.054, "unit": "Fold"}, {"measurement": "Wound area (Fold)", "setting": "[1]; A875 shp75, 2uM, 3 h, Mean", "value": 0.908, "unit": "Fold"}, {"measurement": "Wound area (Fold)", "setting": "[1]; A875 shp75, 2uM, 3 h, n1", "value": 0.882, "unit": "Fold"}, {"measurement": "Wound area (Fold)", "setting": "[1]; A875 shp75, 2uM, 3 h, n2", "value": 0.921, "unit": "Fold"}, {"measurement": "Wound area (Fold)", "setting": "[1]; A875 shp75, 2uM, 3 h, n3", "value": 0.922, "unit": "Fold"}, {"measurement": "Wound area (Fold)", "setting": "[1]; A875 shp75, 2uM, 6 h, Mean", "value": 0.857, "unit": "Fold"}, {"measurement": "Wound area (Fold)", "setting": "[1]; A875 shp75, 2uM, 6 h, n1", "value": 0.826, "unit": "Fold"}, {"measurement": "Wound area (Fold)", "setting": "[1]; A875 shp75, 2uM, 6 h, n2", "value": 0.869, "unit": "Fold"}, {"measurement": "Wound area (Fold)", "setting": "[1]; A875 shp75, 2uM, 6 h, n3", "value": 0.877, "unit": "Fold"}, {"measurement": "Wound area (Fold)", "setting": "[1]; A875 shp75, 2uM, 9 h, Mean", "value": 0.836, "unit": "Fold"}, {"measurement": "Wound area (Fold)", "setting": "[1]; A875 shp75, 2uM, 9 h, n1", "value": 0.818, "unit": "Fold"}, {"measurement": "Wound area (Fold)", "setting": "[1]; A875 shp75, 2uM, 9 h, n2", "value": 0.854, "unit": "Fold"}, {"measurement": "Wound area (Fold)", "setting": "[1]; A875 shp75, 2uM, 9 h, n3", "value": 0.836, "unit": "Fold"}, {"measurement": "Wound area (Fold)", "setting": "[1]; A875 shp75, 2uM, 12 h, Mean", "value": 0.798, "unit": "Fold"}, {"measurement": "Wound area (Fold)", "setting": "[1]; A875 shp75, 2uM, 12 h, n1", "value": 0.793, "unit": "Fold"}, {"measurement": "Wound area (Fold)", "setting": "[1]; A875 shp75, 2uM, 12 h, n2", "value": 0.807, "unit": "Fold"}, {"measurement": "Wound area (Fold)", "setting": "[1]; A875 shp75, 2uM, 12 h, n3", "value": 0.794, "unit": "Fold"}, {"measurement": "Wound area (Fold)", "setting": "[1]; A875 shp75, 2uM, 15 h, Mean", "value": 0.786, "unit": "Fold"}, {"measurement": "Wound area (Fold)", "setting": "[1]; A875 shp75, 2uM, 15 h, n1", "value": 0.790, "unit": "Fold"}, {"measurement": "Wound area (Fold)", "setting": "[1]; A875 shp75, 2uM, 15 h, n2", "value": 0.776, "unit": "Fold"}, {"measurement": "Wound area (Fold)", "setting": "[1]; A875 shp75, 2uM, 15 h, n3", "value": 0.791, "unit": "Fold"}, {"measurement": "Wound area (Fold)", "setting": "[1]; A875 shp75, 2uM, 18 h, Mean", "value": 0.750, "unit": "Fold"}, {"measurement": "Wound area (Fold)", "setting": "[1]; A875 shp75, 2uM, 18 h, n1", "value": 0.749, "unit": "Fold"}, {"measurement": "Wound area (Fold)", "setting": "[1]; A875 shp75, 2uM, 18 h, n2", "value": 0.742, "unit": "Fold"}, {"measurement": "Wound area (Fold)", "setting": "[1]; A875 shp75, 2uM, 18 h, n3", "value": 0.760, "unit": "Fold"}, {"measurement": "Wound area (Fold)", "setting": "[1]; A875 shp75, 2uM, 21 h, Mean", "value": 0.731, "unit": "Fold"}, {"measurement": "Wound area (Fold)", "setting": "[1]; A875 shp75, 2uM, 21 h, n1", "value": 0.738, "unit": "Fold"}, {"measurement": "Wound area (Fold)", "setting": "[1]; A875 shp75, 2uM, 21 h, n2", "value": 0.705, "unit": "Fold"}, {"measurement": "Wound area (Fold)", "setting": "[1]; A875 shp75, 2uM, 21 h, n3", "value": 0.751, "unit": "Fold"}, {"measurement": "Wound area (Fold)", "setting": "[1]; A875 shp75, 2uM, 24 h, Mean", "value": 0.700, "unit": "Fold"}, {"measurement": "Wound area (Fold)", "setting": "[1]; A875 shp75, 2uM, 24 h, n1", "value": 0.699, "unit": "Fold"}, {"measurement": "Wound area (Fold)", "setting": "[1]; A875 shp75, 2uM, 24 h, n2", "value": 0.661, "unit": "Fold"}, {"measurement": "Wound area (Fold)", "setting": "[1]; A875 shp75, 2uM, 24 h, n3", "value": 0.739, "unit": "Fold"}, {"measurement": "NGF-induced chemotaxis", "setting": "[2]", "value": "strongly inhibited"}, {"measurement": "background cell migration in the absence of NGF", "setting": "[2]", "value": "did not significantly affect background cell migration"}, {"measurement": "Fold change - invading cells, Mean", "setting": "[2]; NGF", "value": 1.91}, {"measurement": "Fold change - invading cells, individual replicates", "setting": "[2]; NGF", "value": "1.80 and 1.91 and 2.02"}, {"measurement": "Fold change - invading cells, Mean", "setting": "[2]; no NGF", "value": 0.91}, {"measurement": "Fold change - invading cells, individual replicates", "setting": "[2]; no NGF", "value": "0.87 and 0.90 and 0.95"}, {"measurement": "NGF activity in Boyden chamber assay of cell chemotaxis", "setting": "[2]; 1 μM, NGF 50 ng/ml", "value": "inactive"}, {"measurement": "Fold change (invading cells), n1-n3", "setting": "[2]; [3]", "value": "0.46 Fold and 0.84 Fold and 0.68 Fold"}, {"measurement": "Fold change (invading cells), Mean", "setting": "[2]; [3]", "value": 0.66, "unit": "Fold"}, {"measurement": "Fold change (invading cells), n1-n3", "setting": "[2]; [4]", "value": "0.94 Fold and 0.80 Fold"}, {"measurement": "Fold change (invading cells), Mean", "setting": "[2]; [4]", "value": 0.89, "unit": "Fold"}, {"measurement": "Fold change (invading cells), n1-n3", "setting": "[2]; 10μM Div17E5, With NGF", "value": "0.42 Fold and 0.37 Fold and 0.47 Fold"}, {"measurement": "Fold change (invading cells), Mean", "setting": "[2]; 10μM Div17E5, With NGF", "value": 0.42, "unit": "Fold"}, {"measurement": "Fold change (invading cells), n1-n3", "setting": "[2]; 10μM Div17E5, without NGF", "value": "0.87 Fold and 0.75 Fold and 0.76 Fold"}, {"measurement": "Fold change (invading cells), Mean", "setting": "[2]; 10μM Div17E5, without NGF", "value": 0.79, "unit": "Fold"}]}]}
